pKi: −log10 of the molar value.
Target: T1, Recombinant Human Histamine H4 Receptor (Homo sapiens, UniProt Q9H3N8)
T1 construct: expressed in transfected cells; host or cells: SK-N-MC cells or COS7 cells, transiently transfected; cell membranes used
Assay: Binding Assay on Recombinant Human Histamine H4 Receptor
Details: competition binding with 3H-histamine, membranes of SK-N-MC or COS7 cells expressing human histamine H4 receptor; Ki by Cheng-Prusoff (KD 5 nM, ligand 5 nM); average of results obtained
Source text: Additional examples of embodiments of this invention are provided by hemitartrate salts of compounds of Formula (I) and by hydrates, such as monohydrates and dihydrates, of compounds of Formula (I). […]

Row | Structure (SMILES) | pKi
1 | CCc1nc(NCCCC2CCN(C)CC2)ncc1-c1nc2c(F)c(F)ccc2[nH]1 [Example 9, [5-(4,5-Difluoro-1H-benzoimidazol-2-yl)-4-ethyl-pyrimidin-2-yl]-[3-(1-methyl-piperidin-4-yl)-propyl]-amine] | 6.68
2 | CCCc1nc(NCCCC2CCN(C)CC2)ncc1-c1nc2c(F)c(C)ccc2[nH]1 [Example 10, [5-(4-Fluoro-5-methyl-1H-benzoimidazol-2-yl)-4-propyl-pyrimidin-2-yl]-[3-(1-methyl-piperidin-4-yl)-propyl]-amine] | 6.33
3 | Cc1ccc2[nH]c(-c3cnc(NCCCC4CCN(C)CC4)nc3C(C)C)nc2c1C [Example 11, [5-(4,5-Dimethyl-1H-benzoimidazol-2-yl)-4-isopropyl-pyrimidin-2-yl]-[3-(1-methyl-piperidin-4-yl)-propyl]-amine] | 6.44
4 | Cc1ccc2[nH]c(-c3cnc(NCCCC4CCN(C)CC4)nc3C3CCC3)nc2c1C [Example 13, [4-Cyclobutyl-5-(4,5-dimethyl-1H-benzoimidazol-2-yl)-pyrimidin-2-yl]-[3-(1-methyl-piperidin-4-yl)-propyl]-amine] | 6.37
5 | CN1CCC(CCCNc2ncc(-c3nc4c(F)c(F)ccc4[nH]3)c(C3CCC3)n2)CC1 [Example 14, [4-Cyclobutyl-5-(4,5-difluoro-1H-benzoimidazol-2-yl)-pyrimidin-2-yl]-[3-(1-methyl-piperidin-4-yl)-propyl]-amine] | 6.00
6 | Cc1c(F)ccc2[nH]c(-c3cnc(NCCCC4CCN(C)CC4)nc3)nc12 [Example 15, [5-(5-Fluoro-4-methyl-1H-benzoimidazol-2-yl)-pyrimidin-2-yl]-[3-(1-methyl-piperidin-4-yl)-propyl]-amine] | 6.54
7 | Cc1c(F)ccc2[nH]c(-c3cnc(NCCCC4CCN(C)CC4)nc3C3CCC3)nc12 [Example 16, [4-Cyclobutyl-5-(5-fluoro-4-methyl-1H-benzoimidazol-2-yl)-pyrimidin-2-yl]-[3-(1-methyl-piperidin-4-yl)-propyl]-amine] | 5.83
8 | Cc1cc(C)c2nc(-c3cnc(NCCCC4CCN(C)CC4)nc3C3CCC3)[nH]c2c1 [Example 17, [4-Cyclobutyl-5-(4,6-dimethyl-1H-benzoimidazol-2-yl)-pyrimidin-2-yl]-[3-(1-methyl-piperidin-4-yl)-propyl]-amine] | 5.88
9 | CCCc1nc(NCCCC2CCN(C)CC2)ncc1-c1nc2c(C)c(C)ccc2[nH]1 [Example 18, [5-(4,5-Dimethyl-1H-benzoimidazol-2-yl)-4-propyl-pyrimidin-2-yl]-[3-(1-methyl-piperidin-4-yl)-propyl]-amine] | 5.62
10 | Cc1c(F)ccc2[nH]c(-c3cnc(NCCCC4CCN(C)CC4)nc3C(C)C)nc12 [Example 20, [5-(5-Fluoro-4-methyl-1H-benzoimidazol-2-yl)-4-isopropyl-pyrimidin-2-yl]-[3-(1-methyl-piperidin-4-yl)-propyl]-amine] | 6.64
11 | Cc1ccc2[nH]c(-c3cnc(NCCCC4CCN(C)CC4)nc3C(F)(F)F)nc2c1C [Example 30, [5-(4,5-Dimethyl-1H-benzoimidazol-2-yl)-4-trifluoromethyl-pyrimidin-2-yl]-[3-(1-methyl-piperidin-4-yl)-propyl]-amine] | 6.64
12 | CN1CCC(CCCNc2ncc(-c3nc4cc(F)c(F)cc4[nH]3)c(C(F)(F)F)n2)CC1 [Example 31, [5-(5,6-Difluoro-1H-benzoimidazol-2-yl)-4-trifluoromethyl-pyrimidin-2-yl]-[3-(1-methyl-piperidin-4-yl)-propyl]-amine] | 6.64
13 | CC(C)c1nc(NCCCC2CCN(C)CC2)ncc1-c1nc2c(F)c(F)ccc2[nH]1 [Example 32, [5-(4,5-Difluoro-1H-benzoimidazol-2-yl)-4-isopropyl-pyrimidin-2-yl]-[3-(1-methyl-piperidin-4-yl)-propyl]-amine] | 5.21
14 | Cc1c(F)ccc2[nH]c(-c3cnc(NCCCC4CCN(C)CC4)cn3)nc12 [Example 33, [5-(5-Fluoro-4-methyl-1H-benzoimidazol-2-yl)-pyrazin-2-yl]-[3-(1-methyl-piperidin-4-yl)-propyl]-amine] | 6.60
15 | Cc1ccc2[nH]c(-c3cnc(NCCCC4CCN(C)CC4)cn3)nc2c1C [Example 34, [5-(4,5-Dimethyl-1H-benzoimidazol-2-yl)-pyrazin-2-yl]-[3-(1-methyl-piperidin-4-yl)-propyl]-amine] | 6.17

Stronger by pKi, values ahead:

Row | pKi | Structure (SMILES)
16 | 7.68 | Cc1nc(NCCCC2CCN(C)CC2)ncc1-c1nc2c(C)c(F)ccc2[nH]1 [Example 1, [5-(5-Fluoro-4-methyl-1H-benzoimidazol-2-yl)-4-methyl-pyrimidin-2-yl]-[3-(1-methyl-piperidin-4-yl)-propyl]-amine]
17 | 7.96 | Cc1cc(C)c2nc(-c3cnc(NCCCC4CCN(C)CC4)nc3C)[nH]c2c1 [Example 2, [5-(4,6-Dimethyl-1H-benzoimidazol-2-yl)-4-methyl-pyrimidin-2-yl]-[3-(1-methyl-piperidin-4-yl)-propyl]-amine]
18 | 8.40 | Cc1nc(NCCCC2CCN(C)CC2)ncc1-c1nc2c(C)cc(F)cc2[nH]1 [Example 3, [5-(6-Fluoro-4-methyl-1H-benzoimidazol-2-yl)-4-methyl-pyrimidin-2-yl]-[3-(1-methyl-piperidin-4-yl)-propyl]-amine]
19 | 7.96 | Cc1nc(NCCCC2CCN(C)CC2)ncc1-c1nc2c(F)c(F)ccc2[nH]1 [Example 4, [5-(4,5-Difluoro-1H-benzoimidazol-2-yl)-4-methyl-pyrimidin-2-yl]-[3-(1-methyl-piperidin-4-yl)-propyl]-amine]
20 | 8.40 | Cc1ccc2[nH]c(-c3cnc(NCCCC4CCN(C)CC4)nc3C)nc2c1C [Example 5, [5-(4,5-Dimethyl-1H-benzoimidazol-2-yl)-4-methyl-pyrimidin-2-yl]-[3-(1-methyl-piperidin-4-yl)-propyl]-amine]
21 | 7.77 | Cc1nc(NCCCC2CCN(C)CC2)ncc1-c1nc2c(F)cc(F)cc2[nH]1 [Example 6, [5-(4,6-Difluoro-1H-benzoimidazol-2-yl)-4-methyl-pyrimidin-2-yl]-[3-(1-methyl-piperidin-4-yl)-propyl]-amine]
22 | 7.08 | Cc1cc(C)c2nc(-c3cnc(N(C)CCCC4CCN(C)CC4)nc3C)[nH]c2c1 [Example 7, [5-(4,6-Dimethyl-1H-benzoimidazol-2-yl)-4-methyl-pyrimidin-2-yl]-methyl-[3-(1-methyl-piperidin-4-yl)-propyl]-amine]
23 | 6.70 | Cc1cc(C)c2nc(-c3cnc(NCCCC4CCN(C)CC4)nc3C(C)C)[nH]c2c1 [Example 12, [5-(4,6-Dimethyl-1H-benzoimidazol-2-yl)-4-isopropyl-pyrimidin-2-yl]-[3-(1-methyl-piperidin-4-yl)-propyl]-amine]
24 | 7.57 | Cc1nc(NCCCC2CCN(C)CC2)ncc1-c1nc2c(C)cccc2[nH]1 [Example 21, [4-Methyl-5-(4-methyl-1H-benzoimidazol-2-yl)-pyrimidin-2-yl]-[3-(1-methyl-piperidin-4-yl)-propyl]-amine]
25 | 6.96 | Cc1nc(NCCCC2CCN(C)CC2)ncc1-c1nc2ccccc2[nH]1 [Example 22, [5-(1H-Benzoimidazol-2-yl)-4-methyl-pyrimidin-2-yl]-[3-(1-methyl-piperidin-4-yl)-propyl]-amine]
26 | 7.23 | Cc1nc(NCCCC2CCN(C)CC2)ncc1-c1nc2cc(F)ccc2[nH]1 [Example 23, [5-(5-Fluoro-1H-benzoimidazol-2-yl)-4-methyl-pyrimidin-2-yl]-[3-(1-methyl-piperidin-4-yl)-propyl]-amine]
27 | 7.92 | Cc1nc(NCCCC2CCN(C)CC2)ncc1-c1nc2cc(C(F)(F)F)ccc2[nH]1 [Example 24, [3-(1-Methyl-piperidin-4-yl)-propyl]-[4-methyl-5-(5-trifluoromethyl-1H-benzoimidazol-2-yl)-pyrimidin-2-yl]-amine]
28 | 7.89 | Cc1nc(NCCCC2CCN(C)CC2)ncc1-c1nc2cc(C(C)(C)C)ccc2[nH]1 [Example 25, [5-(5-tert-Butyl-1H-benzoimidazol-2-yl)-4-methyl-pyrimidin-2-yl]-[3-(1-methyl-piperidin-4-yl)-propyl]-amine]
29 | 7.89 | Cc1nc(NCCCC2CCN(C)CC2)ncc1-c1nc2c(C)c(Cl)ccc2[nH]1 [Example 26, [5-(5-Chloro-4-methyl-1H-benzoimidazol-2-yl)-4-methyl-pyrimidin-2-yl]-[3-(1-methyl-piperidin-4-yl)-propyl]-amine]
30 | 7.04 | Cc1c(F)ccc2[nH]c(-c3cnc(NCCCC4CCN(C)CC4)nc3C(F)(F)F)nc12 [Example 27, [5-(5-Fluoro-4-methyl-1H-benzoimidazol-2-yl)-4-trifluoromethyl-pyrimidin-2-yl]-[3-(1-methyl-piperidin-4-yl)-propyl]-amine]
31 | 7.21 | Cc1cc(F)cc2[nH]c(-c3cnc(NCCCC4CCN(C)CC4)nc3C(F)(F)F)nc12 [Example 28, [5-(6-Fluoro-4-methyl-1H-benzoimidazol-2-yl)-4-trifluoromethyl-pyrimidin-2-yl]-[3-(1-methyl-piperidin-4-yl)-propyl]-amine]
32 | 7.46 | CN1CCC(CCCNc2ncc(-c3nc4c(Cl)cc(Cl)cc4[nH]3)c(C(F)(F)F)n2)CC1 [Example 29, [5-(4,6-Dichloro-1H-benzoimidazol-2-yl)-4-trifluoromethyl-pyrimidin-2-yl]-[3-(1-methyl-piperidin-4-yl)-propyl]-amine]
33 | 7.96 | Cc1nc(NCCCC2CCN(C)CC2)ncc1-c1nc2c(C(F)(F)F)cc(C(F)(F)F)cc2[nH]1 [Example 35, [5-(4,6-Bis-trifluoromethyl-1H-benzoimidazol-2-yl)-4-methyl-pyrimidin-2-yl]-[3-(1-methyl-piperidin-4-yl)-propyl]-amine]
34 | 6.77 | Cc1nc(NCCCC2CCN(C)CC2)ncc1-c1nc2cc(C#N)ccc2[nH]1 [Example 36, 2-{4-Methyl-2-[3-(1-methyl-piperidin-4-yl)-propylamino]-pyrimidin-5-yl}-1H-benzoimidazole-5-carbonitrile]

Reference: patent US9365548B2, “Benzoimidazol-2-yl pyrimidines and pyrazines as modulators of the histamine H4 receptor” (Janssen Pharmaceutica NV, priority 2006, dated 2016)
